Test results published in PMC6695626, “Detection of Osmotic Shock-Induced Extracellular Nucleotide Release with a Genetically Encoded Fluorescent Sensor of ADP and ATP” (Sensors (Basel, Switzerland), 2019).

Target: T1, ADP sensor (mTFP1-ParM-mVenus cp157 terminal fusion; ADPrime sensor, soluble form) (Escherichia coli, UniProt P11904, C287A/K33A/T174A/T175N)
T1 construct: ParM flanked by FRET reporters: wild-type mTFP1 via SGITS linker at N-terminus, mVenus-cp157 via AAA linker at C-terminus; expressed in E. coli DH5alpha
T1 sequence (P11904 1-320 K33A/T174A/T175N/C287A): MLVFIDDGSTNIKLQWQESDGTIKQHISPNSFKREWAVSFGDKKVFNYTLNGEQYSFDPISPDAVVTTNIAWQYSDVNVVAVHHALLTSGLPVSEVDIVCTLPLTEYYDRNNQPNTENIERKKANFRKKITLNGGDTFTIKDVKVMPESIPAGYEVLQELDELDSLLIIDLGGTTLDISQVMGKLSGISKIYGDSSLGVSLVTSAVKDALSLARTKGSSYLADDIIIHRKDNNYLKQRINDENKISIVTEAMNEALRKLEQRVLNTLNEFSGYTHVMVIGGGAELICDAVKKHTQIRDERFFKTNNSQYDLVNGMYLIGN
Assay: FRET ratio (mTFP1/mVenus) dose response, Hill fit
Assay type: binding
Settings: read-out: apparent Kd

How did the Kd turn out when Nc1ncnc2c1ncn2[C@@H]1O[C@H](COP(=O)(O)OP(=O)(O)O)[C@@H](O)[C@H]1O [ADP] was run?
The Kd was 0.16 ± 0.06 µM.

Which Kd does the source give for Nc1ncnc2c1ncn2[C@@H]1O[C@H](COP(=O)(O)OP(=O)(O)OP(=O)(O)O)[C@@H](O)[C@H]1O [ATP] here?
The Kd was 9.9 ± 6.3 µM.
